Results taken from US20130209439A1, “INHIBITORS OF PDE4 BINDING TO HSP20” (THE UNIVERSITY COURT OF THE UNIVERSITY OF GLASGOW, priority 2010, published 2013).

What was measured:
[1] = tested on: Phospho-Ser16 HSP20 in HEKB2 cells; test: Ser16 phosphorylation of HSP20 in HEKB2 cells overexpressing HSP20 (Western blot); format: cell-based; settings: HEKB2 cells transfected with wt HSP20, isoprenaline 1 μM, indicated times
Description: FIG. 1. The phosphorylation of HSP20 at Ser16 is modulated by PDE4 activity in HEKB2 cells. A, HEKB2 cells overexpressing HSP20 or HSP20 ser16-Ala mutant were treated with isoprenaline for indicated times. Cellular lysates were blotted for HSP20 and Phospho-Ser16 HSP20. B, HEKB2 cells overexpressing HSP20 were treated with isoprenaline for indicated times, Cellular lysates were blotted for HSP20 and Phospho-Ser16 HSP20. C, HEKB2 cells overexpressing HSP20 were treated with isoprenaline for indicated times following pre-treatment with the PDE4-specific inhibitor, rolipram. Cellular lysates were blotted for HSP20 and Phospho-Ser16 HSP20. D, Quantifications of data from FIGS. 1B and 1C (n=4). * Denotes significance at a level p<0.05 E, Lysate from untransfected HEKB2 cells was blotted for HSP20 and Phospho-Ser16 HSP20.
(§1) HEK293B2 cells are a stable cell line overexpressing the GFP-tagged β2AR were cultured as previously described^48. HEK293B2 cells were transiently transfected with wild type HSP20 or a phosphorylation defective HSP20 (S16A) or a phosphorylation mimic HSP20 (S16D). Neonatal cardiac myocytes were prepared and cultured as previously described^30. Cell lysis, immunopurification and western blotting was done as described before by us in some detail^48. Briefly, HEK 293 cells were transiently transfected with wild-type HSP20 by using Polyfect Transfection Reagent (Qiagen). Transfected HEK 293 cells were treated with 10 μM bs906 or 10 μM control peptide for 0, 15, 30, 60 and 120 min. Control and treated transfected HEK 293 cells were then washed thrice with ice cold PBS (phosphate buffered saline) before cellular lysates were prepared. Cellular lysates were prepared in lysis buffer containing 25 mM Hepes, pH 7.5, 2.5 mM EDTA, 50 mM NaCl, 50 mM NaF, […], 10% (v/v) glycerol, 1% (v/v) Triton X-100 and Complete™ EDTA-free protease inhibitor cocktail tablets (Roche). Protein concentration of lysates were determined using the Bradford assay and all samples were equalised for protein concentration. Proteins were separated by SOS/PAGE (4-12% Bis-Tris gels) and transferred onto nitrocellulose membranes for Western blotting. Antibodies were used to detect phospho-proteins and native proteins in lysates from control and treated cells
In contrast to this, when we transfected these cells with a phospho-null mutant form, Ser16Ala-Hsp20, then no such change was observed (FIG. 1A). In order to evaluate whether PDE4 activity played a role in regulating this phosphorylation process in Hsp20-transfected HEKB2 cells, cells that had either been pre-treated or not with the PDE4 selective inhibitor rolipram were subsequently challenged with isoprenaline (1 μM) (FIGS. 1B and C). […] Endogenous levels of phospho-HSP20 or HSP20 were not detectable in HEKB2 cells (FIG. 1E).

PDE4 = PDE4 activity associated with HSP20 immunoprecipitates from cardiac myocytes; format: cell-based, rat; settings: isoprenaline 1 μM
Description: FIG. 3. HSP20 forms a complex with members of the PDE4 family of phosphodiesterases. A (upper panel), Immunopurification (Ips) of HSP20 from cellular lysates isolated from myocytes following treatment with Isoprenaline (1 μM) were blotted for the presence of PDE4D isoforms. B, (lower panel) The PDE4 activity associated with HSP20 Ips was determined. C, Members of the PDE4D sub-family of PDE4s were co-expressed with HSP20 in HEKB2 cells. HSP20 Ips were probed for PDE4D isoforms.
PDE activity was measured using a radioactive cAMP hydrolysis assay that has been described previously^56. [8-^3H]adenosine cyclic-3,5′-mono-phosphate was sourced from Amersham Biosciences (Little Chalfont, U.K.) and cyclic-3′,5′-mono-phosphate from Sigma.
Immunopurification (Ips) of HSP20 from cardiac myocytes were screened for associating PDE4 by Western blotting analysis and cAMP PDE assay (FIG. 3A).

[2] = tested on: neonatal cardiac myocytes; test: Cardiac myocyte cell size, manual cross-sectional area; format: cell-based, rat; settings: 24 hour isoprenaline 10 μM, 30 min pre-treatment with 10 μM peptide
Description: (§2) FIG. 7. Peptide disruption of the PDE4D-HSP20 complex attenuates the hypertrophic response triggered by constant […]-agonist treatment. A, Upper panel. The area covered by isolated cardiac myocytes was used as a measure of cell size. Lower panel, Graphical depiction of the mean areas (N=100) of cells following 24 hours of indicated treatments. B, impedance measurements were used to calculate continuous normalised cell index using exCELLigence technology Normalised mean (n=4) cell index after 24 hours of indicated treatments.
Cardiomyocytes were plated out on gelatin (Sigma) pre-coated 6-well plates and placed in an incubator at 37° C. and an atmosphere of 5% CO2. After 24 h the cardiomyocytes were cultured in a serum-free condition for 48 h before experiments. The cardiomyocytes were then challenged for 24 h with either 10 μM isoprenaline alone or isoprenaline following a 30 min pre-treatment with 10 μM rolipram, 10 μM bs906 or 10 μM control peptide. Thereafter, cell size was determined on phase-contrast microscope. […] from randomly selected microscope images (400×) were captured digitally and analysed. Cross-sectional area was determined by the following formula: cross-sectional area=(radius)^2×π. Values are expressed as means±SE of five separate culture preparations. A f-test was performed to compare the two groups, and the P values are indicated.

[3] = tested on: neonatal cardiac myocytes; test: Cardiac myocyte size by xCELLigence impedance (normalised cell index); format: cell-based, rat; settings: 24 hour isoprenaline 10 μM, 30 min pre-treatment with 10 μM peptide
Description: as §2
The E-Plate 96 (Roche) was used for these experiments^45. This comprises a 96-well plate with integral sensor electrode arrays to measure cell impedance. […] E-plate 96 is a 96-well microtiter plate with incorporated gold cell sensor arrays in the bottom, which allows impedance inside each well to be monitored and assayed in real time. […] The impedance measured between electrodes in an individual well depends on electrode geometry, ion concentration in the well and whether or not cells are attached to the electrodes^45. In the absence of cells, electrode impedance is mainly determined by the ion environment both at the electrode/solution interface and in the bulk solution. […] Small changes in impedance can also be recorded when cells temporally change shape or size in response to agonists^46,57. […]

[4] = tested on: Phospho-Ser16 HSP20 in neonatal cardiac myocytes; test: Ser16 phosphorylation of endogenous HSP20 in neonatal cardiac myocytes (Western blot); format: cell-based, rat; settings: neonatal cardiomyocytes, isoprenaline challenge
Description: FIG. 2. The phosphorylation of HSP20 at Ser16 is modulated by PDE4 activity in cardiac myocytes. A, Neonatal cardiac myocytes were treated with isoprenaline for indicated times with or without pre-treatment with the PDE4-specific inhibitor, rolipram. Cellular lysates were blotted for HSP20 and Phospho-Ser16 HSP20. B, Quantifications of data from FIG. 2A (n=3). * Denotes significance at a level p<0.05 over iso treatment.
as §1
To determine whether inhibition of PDE4 activity had similar effects on endogenous phospho-HSP20 levels in heart cells, similar experiments were undertaken using neonatal cardiomyocytes (FIG. 2).

SMILES: CC(C)NCC(O)c1ccc(O)c(O)c1 (centres unmarked) [isoprenaline]
- phosphorylation of Hsp20 at Ser16 [1]: time dependent phosphorylation of Hsp20 at Ser16
- increase in PDE4 activity associated with HSP20 immunoprecipitates vs untreated lysates (PDE4): 2.5 fold
- cell size (cross-sectional area) of cardiac myocytes [2]: marked increase in cell size
- cell size (normalised cell index, impedance) of cardiac myocytes [3]: marked increase in cell size
- endogenous phospho-HSP20 levels [4]: induced an increase in endogenous phospho-HSP20 levels
